Laboratory results published in patent publication US5045566A, “Novel imidate insecticides” (ICI Americas Inc., priority 1989, dated 1991).

How the values were obtained:
Type in all cases: in vivo
[1] = system: Cabbage Looper [Trichoplusia ni (Hubner)]; assay: Cabbage looper leaf dip (CL), 3-5 days; settings: percent in solution, second-instar larvae
How it was run: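 Squash cotyledons dipped in test solution (acetone-water 50-50, ≤0.1%), dried, offered to 5 second-instar larvae; mortality after 3-5 days gives LC50.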

[2] = system: Housefly [Musca domestica]; assay: Housefly contact mortality in dishes (HF), 48 hours; settings: μg of test compound per 25 female flies
How it was run: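 Dose range started at 100 μg per 25 female flies and went downward. Insects (1-2 days old) contacted a dried acetone/peanut-oil deposit in dishes; LC50 values come from dosage-mortality curves at 48 h.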

[3] = system: Aster Leafhopper [Macrosteles fascifrens (Stal)]; assay: Aster leafhopper on dipped oat seedlings (LH), 48 hours; settings: percent in solution, adults/nymphs
Procedure: The compounds in Tables 1 and 2 above were tested for insecticidal activity using the following testing procedures. LC50 values, based on the results of these tests and calculated according to dosage-mortality curves, are expressed in Table 3.
Aster Leafhopper [Macrosteles fascifrens (Stal)]
Oat seedlings (Avena sp) were grown in a commercial potting soil in cups. When the plants were approximately 10 cm tall they were thinned to three plants per cup and dipped for 2-3 seconds in 50-50 acetone-water solutions of the test compounds. When the plants had dried, a clear plastic tube was placed over them and the bottom end pressed into the cup. Ten aster leafhopper adults/nymphs were then placed in each tube and the tops of the tubes covered with white organdy cloth. Mortality counts were made after 48 hours. Test concentrations ranged from 0.05% down to that at which 50% mortality occurred. The LC50 values are expressed below in Table 3 under the heading "LH" in terms of the percent of the test compound in the solution.

[4] = system: Black Bean Aphid [Aphis fabae (Scop.)]; assay: Black bean aphid spray test on nasturtium (BBA), 48 hours; settings: percent of test compound in sprayed solution
How it was run: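 LC50, given as percent test compound in the sprayed liquid, was calculated from dosage-mortality curves using concentrations from 0.05% downward. Sprays in 50:50 acetone-water went to runoff on ~5 cm nasturtiums carrying 25-50 aphids of mixed ages, one day after infestation. Deaths were counted 48 h later under greenhouse conditions.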

[5] = system: Maize weevil [Sitophilus zeamais (Motschulsky)]; assay: Maize weevil on dipped corn seeds (MW), 48 hours; settings: percent in solution, adult weevils
How it was run: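 LC50, given as percent of compound in dipping solution, comes from dosage-mortality curves over concentrations descending from 0.01%. Four corn seeds soaked 2-3 s in 50:50 acetone:water solution were dried and held with 10 adult weevils, about 25° C, mortality read after 48 h.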

[6] = system: Tobacco Budworm [Heliothis virescens (Fabricius)] eggs; assay: Tobacco budworm eggs (TBW-E); settings: percent in solution; 2-day old eggs
How it was run: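 Step 1: dip 2-day old egg patches in acetone test solutions (top concentration 0.1%). Step 2: hold in dishes with rearing medium at 78° F. Step 3: record mortality after control hatch and feeding.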

Row | Compound | LC50 CL [1] [%] | LC50 HF [2] [µg] | LC50 LH [3] [%] | LC50 BBA [4] [%] | LC50 MW [5] [%] | LC50 TBW E (eggs) [6] [%]
1 | CC1(C(=Nc2ccc(Cl)cc2)OCc2cccc(Oc3ccccc3)c2)CC1 [Compound 5] | 0.005 | 21 | > 0.05 | 0.001 | > 0.01 | 
2 | C=C(C)C(=Nc1ccc(Cl)cc1)OCc1cccc(Oc2ccccc2)c1 [Compound 6] | 0.02 | 17 | > 0.05 | 0.001 | > 0.01 | 0.015
3 | CCC(=Nc1ccc(Cl)cc1)OCc1cccc(Oc2ccccc2)c1 [Compound 11] | 0.025 | 6 | > 0.05 | 0.01 | > 0.01 | > 0.1
4 | CC(C)C(=Nc1cc(Cl)ccc1Cl)OCc1cccc(Oc2ccccc2)c1 [Compound 13] | 0.014 | > 100 | > 0.05 | 0.003 | > 0.01 | > 0.1
5 | FC(F)(F)C(=Nc1ccc(Cl)cc1)OCc1cccc(Oc2ccccc2)c1 [Compound 35] | 0.008 | 15 | > 0.05 |  | > 0.01 | 0.03
6 | CC(C)(C)C(=Nc1ccc(Br)cc1)OCc1cccc(Oc2ccccc2)c1 [Compound 135] | 0.004 | > 100 | > 0.05 | > 0.05 |  | > 0.1
7 | CC(C)C(=Nc1ccc(I)cc1)OCc1cccc(Oc2ccccc2)c1 [Compound 137] | 0.003 | 18 | 0.008 | 0.03 |  | 0.04
8 | CCc1cccc(N=C(OCc2cccc(Oc3ccccc3)c2)C(C)C)c1 [Compound 154] | 0.004 | 25 | > 0.05 | 0.002 |  | 0.1
9 | CCc1ccc(N=C(OCc2cccc(Oc3ccc(F)cc3)c2)C(C)C)cc1 [Compound 159] | 0.001 | 25 | 0.0025 | 0.001 |  | 0.08
10 | CCc1ccc(N=C(OCc2cccc(Oc3ccccc3)c2)C(C)C)cc1 [Compound 161] | 0.0014 | 15 | 0.002 | 0.0006 |  | 0.07
11 | CCc1cccc(N=C(OCc2cccc(Oc3ccccc3)c2)C(C)(C)C)c1 [Compound 162] | 0.035 | > 100 | > 0.05 | > 0.05 |  | > 0.1
12 | CC(C)C(=Nc1ccc2c(c1)CCC2)OCc1cccc(Oc2ccccc2)c1 [Compound 187] | 0.0025 | 15 | 0.0025 | 0.001 |  | > 0.1
13 | CC(C)C(=Nc1ccc(Cl)cc1)OCc1cccc(Oc2ccc(F)cc2)c1 [Compound 189] | 0.00027 | 17 | 0.002 |  | > 0.01 | 0.07
14 | CC(C)C(=Nc1ccc(Cl)c(C(F)(F)F)c1)OCc1cccc(Oc2ccc(F)cc2)c1 [Compound 193] | 0.00075 | 100 | 0.001 |  | > 0.01 | > 0.1
15 | Cc1ccc(Oc2cccc(COC(=Nc3ccc(F)c(Cl)c3)C(C)C)c2)cc1 [Compound 225] | 0.0025 | > 100 | > 0.05 | 0.006 |  | > 0.1
16 | CC(C)C(=Nc1ccc(C(C)C)cc1)OCc1cccc(Oc2ccc(F)cc2)c1 [Compound 228] | 0.0025 | > 100 | > 0.05 | 0.01 |  | > 0.1
17 | CC(C)C(=Nc1ccc2c(c1)OC(C)(C)O2)OCc1ccc(F)c(Oc2ccccc2)c1 [Compound 242] | 0.00025 | < 100 | > 0.05 | < 0.05 |  | > 0.1
18 | CSc1ccc(Oc2cccc(COC(=Nc3ccc(F)cc3)C(C)C)c2)cc1 [Compound 257] | 0.008 | > 100 | > 0.05 | 0.05 |  | > 0.1
19 | Fc1ccc(Oc2cccc(COC(=Nc3ccc(F)c(Cl)c3)C(F)(F)C(F)(F)F)c2)cc1 [Compound 258] | 0.003 | > 100 | > 0.05 | 0.01 |  | > 0.1
20 | CC(C)C(=Nc1ccc(Cl)cc1)OC(C)c1cccc(Oc2ccccc2)c1 (centres unmarked) [Compound 457] | 0.009 | > 100 | > 0.05 | > 0.05 |  | > 0.05
21 | CC(C)C(=Nc1ccc2c(c1)OCO2)OCc1cccc(Oc2ccc(Cl)cc2)n1 [Compound 466] | 0.0008 | 13 | > 0.05 |  | 0.01 | > 0.1
22 | COCc1c(F)c(F)c(COC(=Nc2ccc(F)c(Cl)c2F)C(C)C)c(F)c1F [Compound 522] | > 0.1 |  | 0.05 | 0.002 | > 0.01 | > 0.1
23 | CC(C)C(=Nc1cccc(C(F)(F)F)c1)OCc1cc(Oc2ccc(F)cc2)ccn1 [Compound 528] | 0.0075 |  | > 0.05 | > 0.05 | > 0.01 | > 0.1
24 | CC(C)C(=Nc1ccc(F)c(Cl)c1)OCc1cc(Oc2ccc(F)cc2)ccn1 [Compound 529] | > 0.0025 |  | > 0.05 | > 0.05 | > 0.01 | > 0.1
25 | CC(C)C(=Nc1ccc(OC(F)(F)F)cc1)OCc1cccc(Cc2ccccc2)c1 [Compound 538] | > 0.1 | 75 | > 0.05 |  | > 0.01 | > 0.1
